Assay results reported in ChEMBL document CHEMBL4619786, “Discovery of Novel Resorcinol Dibenzyl Ethers Targeting the Programmed Cell Death-1/Programmed Cell Death-Ligand 1 Interaction as Potential Anticancer Agents” (J Med Chem, 2020).

Key:
[1] = target: T1, Programmed cell death protein 1/Programmed cell death 1 ligand 1 (Homo sapiens, UniProt Q9NZQ7); assay: Inhibition of human PD1/PDL1 protein-protein interaction by HTRF assay; assay type: protein-complex assay
[2] = target: T1, Programmed cell death protein 1/Programmed cell death 1 ligand 1; assay: Inhibition of human C-terminal Ig-Fc-tagged PD1 (Leu25 to Gln167 residues) expressed in HEK293 cells/human C-terminal epitope-His-tagged PDL1 (Phe19 to Arg238 residues) expressed in HEK293 cells protein-protein interaction preincubated for 15 mins with PDL1 followed by PD1 addition and measured after 15 mins by APC-labeled anti-His antibody/Eu-labeled anti-human IgG based HTRF assay; assay type: cell-based
[3] = Half life in Sprague-Dawley rat at 1 mg/kg, iv by LC-MS/MS analysis; assay type: ADME, organism-based; conditions: in vivo
[4] = Volume of distribution at steady state in Sprague-Dawley rat at 1 mg/kg, iv by LC-MS/MS analysis; assay type: ADME, organism-based; conditions: in vivo, read-out: Vdss
[5] = Tmax in Sprague-Dawley rat at 10 mg/kg, po by LC-MS/MS analysis; assay type: ADME, organism-based; conditions: in vivo
[6] = Cmax in Sprague-Dawley rat at 10 mg/kg, po by LC-MS/MS analysis; assay type: ADME, organism-based; set-up: dose 10 mg/kg, route oral; conditions: in vivo
[7] = AUC (0 to t) in Sprague-Dawley rat at 10 mg/kg, po by LC-MS/MS analysis; assay type: ADME, organism-based; conditions: in vivo
[8] = Volume of distribution at steady state in Sprague-Dawley rat at 10 mg/kg, po by LC-MS/MS analysis; assay type: ADME, organism-based; conditions: in vivo
[9] = Toxicity in Sprague-Dawley rat at 10 mg/kg, po; assay type: organism-based; conditions: in vivo
A549 = assay: Cytotoxicity against human A549 cells assessed as reduction in cell viability measured after 48 hrs by MTT assay; assay type: functional, cell-based; conditions: A549, 48 h
B16-F10 [10] = assay: Antitumor activity against mouse B16/F10 cells implanted in BALB/c mouse assessed as tumor weight at 25 mg/kg, ig administered once daily via gavage for 15 days measured 24 hrs post-last dose (reference value: 0.84 +/- 0.32 g); assay type: functional
B16-F10 [11] = assay: Antitumor activity against mouse B16/F10 cells implanted in BALB/c mouse assessed as tumor weight at 50 mg/kg, ig administered once daily via gavage for 15 days measured 24 hrs post-last dose (reference value: 0.84 +/- 0.32 g); assay type: functional
B16-F10 [12] = assay: Antitumor activity against mouse B16/F10 cells implanted in BALB/c mouse assessed as tumor growth inhibition at 100 mg/kg, ig administered once daily via gavage for 15 days relative to control; assay type: functional; conditions: B16-F10, po, 360 h, read-out: TGI
[13] = Toxicity in mouse B16/F10 cells implanted […] mouse assessed as effect on physical activity at 25 to 100 mg/kg, ig administered once daily via gavage for 15 days measured during compound dosing; assay type: organism-based; conditions: in vivo, po, 360 h
[14] = Toxicity in mouse B16/F10 cells implanted […] mouse assessed as increase in body weight at 25 to 100 mg/kg, ig administered once daily via gavage for 15 days measured during compound dosing; assay type: organism-based; conditions: in vivo, po, 360 h
[15] = Toxicity in […] cells xenografted BALB/c mouse assessed as decrease in body weight at 25 mg/kg, ip administered once daily for 14 days measured daily during compound dosing; assay type: organism-based; conditions: in vivo, 336 h
Mus musculus [16] = assay: (§1) Immunostimulatory activity in mouse B16/F10 cells implanted […] mouse assessed as increase in activation of tumor-microenvironment mediated activated cytotoxic T cells in tumor by measuring melanoma cell population at 100 mg/kg, ig administered once daily via gavage for 15 days measured 24 hrs post-last dose by immunostaining based flow cytometry (reference value: 72.8%); assay type: functional
Mus musculus [17] = assay: as §1, with “helper” for “activated cytotoxic”, “CD4-positive” for “melanoma”, “50” for “100”, “4.95%)” for “72.8%)”; assay type: functional
Mus musculus [18] = assay: as §1, with “helper” for “activated cytotoxic”, “50” for “100”, “70%)” for “72.8%)”; assay type: functional
Mus musculus [19] = assay: as §1, with “CD8-positive” for “melanoma”, “50” for “100”, “2.2%)” for “72.8%)”; assay type: functional
Mus musculus [20] = assay: as §1, with “helper” for “activated cytotoxic”, “25” for “100”, “70%)” for “72.8%)”; assay type: functional
Mus musculus [21] = assay: Effect on spleen helper T cell population in mouse B16/F10 cells implanted […] mouse assessed as spleen cell population at 100 mg/kg, ig administered once daily via gavage for 15 days measured 24 hrs post-last dose by immunostaining based flow cytometry (reference value: 56.1 %); assay type: ADME, organism-based; conditions: in vivo, po
Mus musculus [22] = assay: Effect on spleen helper T cell population in mouse B16/F10 cells implanted […] mouse assessed as CD3-positive cell population at 100 mg/kg, ig administered once daily via gavage for 15 days measured 24 hrs post-last dose by immunostaining based flow cytometry (reference value: 14.7%); assay type: organism-based; conditions: in vivo, po
Mus musculus [23] = assay: (§2) Effect on activated cytotoxic T cell population in mouse B16/F10 cells implanted […] mouse assessed as CD3-positive/CD8-positive cell population in spleen at 100 mg/kg, ig administered once daily via gavage for 15 days measured 24 hrs post-last dose by immunostaining based flow cytometry (reference value: 14.2 %); assay type: organism-based; conditions: in vivo, po
Mus musculus [24] = assay: Effect on spleen helper T cell population in mouse B16/F10 cells implanted […] mouse assessed as CD4-positive cell population at 50 mg/kg, ig administered once daily via gavage for 15 days measured 24 hrs post-last dose by immunostaining based flow cytometry (reference value: 1.47 %); assay type: ADME, organism-based; conditions: in vivo, po
Mus musculus [25] = assay: Effect on spleen helper T cell population in mouse B16/F10 cells implanted […] mouse assessed as CD3-positive/CD4-positive cell population at 50 mg/kg, ig administered once daily via gavage for 15 days measured 24 hrs post-last dose by immunostaining based flow cytometry (reference value: 27.7%); assay type: ADME, organism-based; conditions: in vivo, po
Mus musculus [26] = assay: as §2, with “CD3-positive” for “CD3-positive/CD8-positive”, “50” for “100”, “27.5” for “14.2”; assay type: organism-based; conditions: in vivo, po
Mus musculus [27] = assay: Effect on spleen helper T cell population in mouse B16/F10 cells implanted […] mouse assessed as spleen cell population at 25 mg/kg, ig administered once daily via gavage for 15 days measured 24 hrs post-last dose by immunostaining based flow cytometry (reference value: 56.1 %); assay type: ADME, organism-based; conditions: in vivo, po
Mus musculus [28] = assay: Effect on spleen helper T cell population in mouse B16/F10 cells implanted […] mouse assessed as CD3-positive cell population at 25 mg/kg, ig administered once daily via gavage for 15 days measured 24 hrs post-last dose by immunostaining based flow cytometry (reference value: 14.7%); assay type: organism-based; conditions: in vivo, po
Mus musculus [29] = assay: as §2, with “25” for “100”; assay type: organism-based; conditions: in vivo, po
Mus musculus [30] = assay: Effect on activated cytotoxic T cell population in mouse B16/F10 cells implanted […] mouse assessed as spleen cell population at 25 mg/kg, ig administered once daily via gavage for 15 days measured 24 hrs post-last dose by immunostaining based flow cytometry (reference value: 57.9 %); assay type: organism-based; conditions: in vivo, po
Mus musculus [31] = assay: Effect on activated cytotoxic T cell population in mouse B16/F10 cells implanted […] mouse assessed as CD3-positive cell population in spleen at 25 mg/kg, ig administered once daily via gavage for 15 days measured 24 hrs post-last dose by immunostaining based flow cytometry (reference value: 27.5 %); assay type: organism-based; conditions: in vivo, po

T1 sequence (Q15116 whole entry): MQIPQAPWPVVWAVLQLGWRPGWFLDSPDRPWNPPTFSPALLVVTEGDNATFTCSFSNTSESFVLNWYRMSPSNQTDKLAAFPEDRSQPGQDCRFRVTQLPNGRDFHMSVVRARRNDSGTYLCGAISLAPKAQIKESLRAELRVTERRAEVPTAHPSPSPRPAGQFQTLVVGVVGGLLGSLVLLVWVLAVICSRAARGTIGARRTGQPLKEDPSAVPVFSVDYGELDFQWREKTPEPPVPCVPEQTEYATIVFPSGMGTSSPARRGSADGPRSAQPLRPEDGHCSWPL
T1 sequence (Q9NZQ7 whole entry): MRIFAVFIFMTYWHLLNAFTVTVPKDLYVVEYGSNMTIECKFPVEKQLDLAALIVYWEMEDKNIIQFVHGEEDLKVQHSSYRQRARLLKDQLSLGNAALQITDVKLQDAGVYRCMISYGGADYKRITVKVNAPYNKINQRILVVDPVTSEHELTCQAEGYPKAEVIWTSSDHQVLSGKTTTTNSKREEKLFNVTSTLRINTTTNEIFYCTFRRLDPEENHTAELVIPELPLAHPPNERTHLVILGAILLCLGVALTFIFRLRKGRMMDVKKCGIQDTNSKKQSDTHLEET

For `Cc1c(COc2cc(OCc3cccc(C#N)c3)c(CNC(C)(C)C(=O)O)cc2Cl)cccc1-c1ccccc1`, the IC50 [1] was 0.0125 µM, the IC50 [2] was 0.0125 µM and the half-life [3] was 1.5 h. It also gave a Vd [4] of 2.1 L/kg, a Tmax [5] of 0.6 h and a Cmax [6] of 69.5 ng/mL. For the same compound, the AUC(0-t) [7] was 410 ng·h/mL, the Vdss [8] was 290.3 L/kg and the Activity [9] was “Non-Toxic”. The IC50 (A549) was over 10 µM, the Activity (B16-F10 [10]) was 0.41 g and the Activity (B16-F10 [11]) was 0.21 g. For the same compound, the inhibition in vivo at 100 mg/kg (B16-F10 [12]) was 80.9%, the Activity [13] was “Non-Toxic” and the Activity [14] was “Toxic”. The Activity [15] was “Non-Toxic”, the Activity (Mus musculus [16]) was 44.8% and the Activity (Mus musculus [17]) was 2.27%. For the same compound, the Activity (Mus musculus [18]) was 68.4%, the Activity (Mus musculus [19]) was 5.76% and the Activity (Mus musculus [20]) was 65.2%. For the same compound, the Activity (Mus musculus [21]) was 60.4%, the Activity (Mus musculus [22]) was 12.8% and the Activity (Mus musculus [23]) was 11.6%. It also gave an Activity (Mus musculus [24]) of 1.18%, an Activity (Mus musculus [25]) of 28.2% and an Activity (Mus musculus [26]) of 28.8%. The Activity (Mus musculus [27]) was 59.9%, the Activity (Mus musculus [28]) was 13.8% and the Activity (Mus musculus [29]) was 12.5%. For the same compound, the Activity (Mus musculus [30]) was 62.7% and the Activity (Mus musculus [31]) was 24.3%.
